The values below come from ChEMBL document CHEMBL3525983, “Pharmacokinetics, metabolism, and disposition of rivoglitazone, a novel peroxisome proliferator-activated receptor γ agonist, in rats and monkeys” (Drug Metab Dispos, 2011).

Data set [1] in a line: Drug excretion in monkey feces treated with [14C]rivoglitazone at 1 mg/kg, po administered via gavage measured during 0 to 72 hrs by radio-HPLC analysis. Conditions: rhesus monkey, in vivo. Type of data set: ADME, organism-based, Macaca mulatta. More on the design: dose 1 mg/kg, dosed compound name [14C]Rivoglitazone, route oral.
The nature of data set [2]: Drug excretion in monkey urine/feces treated with [14C]rivoglitazone at 1 mg/kg, po administered via gavage measured during 0 to 72 hrs by radio-HPLC analysis. Type of data set: ADME, organism-based, Macaca mulatta. More on the design: dose 1 mg/kg, dosed compound name [14C]Rivoglitazone, route oral. The note with it: rhesus monkey, in vivo.
Data set [3] can be described thus: Retention time of the compound by LC-MS/MS analysis. Set-up: dosed compound name [14C]Rivoglitazone. Type of data set: physicochemical.
Data set [4] concerns Rhesus monkey. Nature of the data set: Drug level in monkey plasma treated with [14C]rivoglitazone assessed as ratio of molar basis AUC (0 to t) at 1 mg/kg, po administered via gavage by LC-MS/MS analysis. Type of data set: ADME, organism-based, Macaca mulatta. Set-up: dose 1 mg/kg, dosed compound name [14C]Rivoglitazone, route oral. The note with it: in vivo.
Data set [5] can be described thus: Drug excretion in F344/DuCrlCrlj rat urine/feces treated with [14C]rivoglitazone at 1 mg/kg, po administered via gavage measured during 0 to 48 hrs by radio-HPLC analysis. Type of data set: ADME, organism-based. More on the design: dose 1 mg/kg, dosed compound name [14C]Rivoglitazone, route oral. Conditions: in vivo.
Data set [6] can be described thus: Drug excretion in F344/DuCrlCrlj rat feces treated with [14C]rivoglitazone at 1 mg/kg, po administered via gavage measured during 0 to 48 hrs by radio-HPLC analysis. Type of data set: ADME, organism-based. Set-up: dose 1 mg/kg, dosed compound name [14C]Rivoglitazone, route oral. Conditions: in vivo.
Data set [7] has as its system Rattus norvegicus. Briefly: Drug level in F344/DuCrlCrlj rat plasma treated with [14C]rivoglitazone assessed as ratio of molar basis AUC (0 to t) at 1 mg/kg, po administered via gavage by LC-MS/MS analysis. Type of data set: ADME, organism-based. More on the design: dose 1 mg/kg, dosed compound name [14C]Rivoglitazone, route oral. The note with it: in vivo.
Data set [8] in a line: Drug excretion in F344/DuCrlCrlj rat urine/bile treated with [14C]rivoglitazone at 1 mg/kg, po administered via gavage measured during 0 to 48 hrs by radio-HPLC analysis. Type of data set: ADME, organism-based. More on the design: dose 1 mg/kg, dosed compound name [14C]Rivoglitazone, route oral. The note with it: in vivo.
The nature of data set [9]: Drug excretion in F344/DuCrlCrlj rat bile treated with [14C]rivoglitazone at 1 mg/kg, po administered via gavage measured during 0 to 48 hrs by radio-HPLC analysis. Type of data set: ADME, organism-based. More on the design: dose 1 mg/kg, dosed compound name [14C]Rivoglitazone, route oral. The note with it: in vivo.
Data set [10] in a line: Drug excretion in monkey urine treated with [14C]rivoglitazone at 1 mg/kg, po administered via gavage measured during 0 to 72 hrs by radio-HPLC analysis. Type of data set: ADME, organism-based, Macaca mulatta. More on the design: dose 1 mg/kg, dosed compound name [14C]Rivoglitazone, route oral. The note with it: rhesus monkey, in vivo.

Take `Cn1c(COc2ccc(CC3SC(=O)NC3=O)cc2)nc2ccc(O)cc21` (configuration not stated): the Compound recovery in data set [1] was 18%; in data set [2] it was 18%; in data set [5] it was 25.6%; in data set [6] it was 25.6%; in [8], “metabolite_not_detected”. In [3], this molecule registered a Retention_time of 19 min. The AUCmet/AUCp was determined as 1.22% in data set [4] and 0.72% in [7].

`COc1ccc2nc(COc3ccc(CC(SC)C(N)=O)cc3)n(C)c2c1` (configuration not stated) showed a Retention_time in data set [3] of 20.9 min. Besides, the AUCmet/AUCp is 0.05% in data set [4] and 0.01% in data set [7].

`COc1ccc2nc(COc3ccc(CC(SSCC(N)C(=O)O)C(=O)O)cc3)n(C)c2c1` (configuration not stated) came in with a Retention_time in data set [3] of 16.8 min. In [4], the AUCmet/AUCp stood at 0.03%.

For `Cn1c(COc2ccc(CC(C(N)=O)S(C)(=O)=O)cc2)nc2ccc(OS(=O)(=O)O)cc21` (configuration not stated), the Compound recovery in data set [9] is listed as 1.3%; in data set [6] it was “metabolite_not_detected”; in data set [8], 1.3%. This molecule returned a Retention_time in data set [3] of 13.8 min.

With `Cn1c(COc2ccc(CC3SC(=O)NC3=O)cc2)nc2ccc(O[C@@H]3O[C@H](C(=O)O)[C@@H](O)[C@H](O)[C@H]3O)cc21` (some centres not stated), the Compound recovery in data set [9] was 1.5%; in [2], 2.6%; in data set [6] it was “metabolite_not_detected”; in data set [10], 2.6%; in data set [8], 1.5%. In addition, the Retention_time in [3] stood at 15.1 min.

`COc1ccc2nc(COc3ccc(CC(SC(=O)N[C@@H]4O[C@H](C(=O)O)[C@@H](O)[C@H](O)[C@H]4O)C(=O)O)cc3)n(C)c2c1` (some centres not stated): the Compound recovery in [1] and in data set [2] was 6.6% in each case. Besides, the Retention_time in data set [3] came out at 17.2 min. In addition, in [4], the AUCmet/AUCp is 1.53%.

For the molecule `O=C1NC(=O)C(Cc2ccc(OCc3nc4ccc(O)cc4[nH]3)cc2)S1` (configuration not stated), the Compound recovery in [2] and in data set [10] was 3.8% each time. Further, in data set [3], the Retention_time was determined as 17.8 min. In addition, in [4], the AUCmet/AUCp is listed as 0.28%.

In data set [3], `COc1ccc2nc(COc3ccc(CC4SC(=O)NC4=O)cc3)[nH]c2c1` (configuration not stated) displayed a Retention_time of 21.5 min. Further, the AUCmet/AUCp is listed as 7.01% in data set [4] and 0.02% in data set [7].

With `COc1ccc2nc(COc3ccc(CC4SC(=O)N([C@@H]5O[C@H](C(=O)O)[C@@H](O)[C@H](O)[C@H]5O)C4=O)cc3)n(C)c2c1` (some centres not stated), the Compound recovery in data set [9] is given as 1%; in data set [2], 1.4%; in [6], “metabolite_not_detected”; in data set [10], 1.4%; in [8], 1%. Further, the Retention_time in data set [3] came to 19.8 min. The AUCmet/AUCp in data set [4] was 2.15%.

In [3], `Cn1c(COc2ccc(CC(SC(=O)N[C@@H]3O[C@H](C(=O)O)[C@@H](O)[C@H](O)[C@H]3O)C(=O)O)cc2)nc2ccc(O)cc21` (some centres not stated) returned a Retention_time of 13.9 min.

For `CSC(Cc1ccc(OCc2nc3ccc(O)cc3n2C)cc1)C(N)=O` (configuration not stated), the Compound recovery in data set [1] is listed as 2.9%; in [2] it was 2.9%; in [5] it was 8.7%; in [6], 8.7%; in data set [8], “metabolite_not_detected”. The molecule further showed a Retention_time in [3] of 16.9 min.

As to `Cn1c(COc2ccc(CC(C(N)=O)[S+](C)[O-])cc2)nc2ccc(OS(=O)(=O)O)cc21` (configuration not stated), the Compound recovery in data set [9] is on record as 3.8%; in data set [6], “metabolite_not_detected”; in [8], 3.8%. In data set [3], this molecule gave a Retention_time of 9.9 min.
